Test results taken from ChEMBL document CHEMBL4507291 (2021).

How the values were obtained:
[1] = target: Substance-P receptor (Homo sapiens) (UniProt P25103); experiment: Inhibition of Tachykinin NK1 at 10 µM in the Eurofins-Panlabs radioligand binding assay (Eurofins_assay_255520); set-up: ligand concentration 0.8 nM; details: Compound concentration 10.0 uM
[2] = target: Prostaglandin G/H synthase 1 (Homo sapiens) (UniProt P23219); experiment: Inhibition of Cyclooxygenase COX-1 at compound concentration of 10.0 uM in the Eurofins-Panlabs enzyme assay (Eurofins_assay_116020); details: Compound concentration 10.0 uM
Chain of Prostaglandin G/H synthase 1 (Homo sapiens) (P23219 whole entry): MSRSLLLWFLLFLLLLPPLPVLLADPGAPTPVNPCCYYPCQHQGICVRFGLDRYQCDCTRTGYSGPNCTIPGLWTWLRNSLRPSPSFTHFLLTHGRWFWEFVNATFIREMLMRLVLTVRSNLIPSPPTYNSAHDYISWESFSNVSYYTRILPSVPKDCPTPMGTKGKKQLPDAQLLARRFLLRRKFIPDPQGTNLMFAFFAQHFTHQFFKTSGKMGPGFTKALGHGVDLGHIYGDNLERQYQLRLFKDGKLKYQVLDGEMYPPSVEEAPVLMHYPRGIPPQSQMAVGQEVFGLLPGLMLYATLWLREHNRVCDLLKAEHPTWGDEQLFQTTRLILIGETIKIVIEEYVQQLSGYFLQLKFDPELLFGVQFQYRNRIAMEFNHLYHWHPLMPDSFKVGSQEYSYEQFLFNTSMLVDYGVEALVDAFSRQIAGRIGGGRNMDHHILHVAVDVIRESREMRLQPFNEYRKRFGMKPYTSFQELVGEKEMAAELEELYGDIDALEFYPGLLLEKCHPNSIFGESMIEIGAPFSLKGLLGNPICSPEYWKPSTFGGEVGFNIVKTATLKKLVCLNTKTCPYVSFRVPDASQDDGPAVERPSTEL

[3] = target: Mitogen-activated protein kinase 14 (Homo sapiens) (UniProt Q16539); experiment: Inhibition of Protein Serine/Threonine Kinase, MAPK14 (p38α) at 10 µM in the Eurofins-Panlabs enzyme assay (Eurofins_assay_176610); set-up: substrate with concentration; details: Compound concentration 10.0 uM
Chain of Mitogen-activated protein kinase 14 (Homo sapiens) (Q16539 whole entry): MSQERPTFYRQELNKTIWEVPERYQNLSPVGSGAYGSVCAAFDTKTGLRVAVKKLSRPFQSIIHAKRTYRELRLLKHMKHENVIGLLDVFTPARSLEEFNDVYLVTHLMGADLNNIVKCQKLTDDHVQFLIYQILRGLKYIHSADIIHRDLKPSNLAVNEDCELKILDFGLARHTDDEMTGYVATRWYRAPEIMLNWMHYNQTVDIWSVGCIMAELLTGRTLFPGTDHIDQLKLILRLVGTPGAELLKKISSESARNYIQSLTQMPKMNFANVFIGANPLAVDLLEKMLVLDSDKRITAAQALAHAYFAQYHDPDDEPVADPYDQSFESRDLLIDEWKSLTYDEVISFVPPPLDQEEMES

[4] = target: T1, Muscarinic acetylcholine receptor M5 (Homo sapiens) (UniProt P08912); experiment: Inhibition of Muscarinic M5 at 10 µM in the Eurofins-Panlabs radioligand binding assay (Eurofins_assay_253010); set-up: ligand concentration 0.8 nM; details: Compound concentration 10.0 uM
T1 sequence (whole entry): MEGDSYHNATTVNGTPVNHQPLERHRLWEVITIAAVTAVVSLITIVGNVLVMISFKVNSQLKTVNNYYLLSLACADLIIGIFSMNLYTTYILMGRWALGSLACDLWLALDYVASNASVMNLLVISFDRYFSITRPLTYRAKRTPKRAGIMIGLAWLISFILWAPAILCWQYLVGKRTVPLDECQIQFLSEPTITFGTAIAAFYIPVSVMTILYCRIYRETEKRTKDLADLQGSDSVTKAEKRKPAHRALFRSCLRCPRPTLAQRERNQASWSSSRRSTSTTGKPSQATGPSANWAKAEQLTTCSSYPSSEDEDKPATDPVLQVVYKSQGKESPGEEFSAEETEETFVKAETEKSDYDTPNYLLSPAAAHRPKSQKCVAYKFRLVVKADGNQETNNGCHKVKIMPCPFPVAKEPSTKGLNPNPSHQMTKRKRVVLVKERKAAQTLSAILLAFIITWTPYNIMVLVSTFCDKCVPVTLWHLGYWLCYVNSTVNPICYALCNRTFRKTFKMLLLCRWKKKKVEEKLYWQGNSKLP

[5] = target: Tyrosine-protein kinase ABL2 (Homo sapiens) (UniProt P42684); experiment: ABL2 (Arg) Kinase screen; details: Compound concentration 1.0 uM
[6] = target: Tyrosine-protein kinase Blk (Homo sapiens) (UniProt P51451); experiment: BLK Kinase screen; details: Compound concentration 1.0 uM
Chain of Tyrosine-protein kinase Blk (Homo sapiens) (P51451 2-505 limits assumed): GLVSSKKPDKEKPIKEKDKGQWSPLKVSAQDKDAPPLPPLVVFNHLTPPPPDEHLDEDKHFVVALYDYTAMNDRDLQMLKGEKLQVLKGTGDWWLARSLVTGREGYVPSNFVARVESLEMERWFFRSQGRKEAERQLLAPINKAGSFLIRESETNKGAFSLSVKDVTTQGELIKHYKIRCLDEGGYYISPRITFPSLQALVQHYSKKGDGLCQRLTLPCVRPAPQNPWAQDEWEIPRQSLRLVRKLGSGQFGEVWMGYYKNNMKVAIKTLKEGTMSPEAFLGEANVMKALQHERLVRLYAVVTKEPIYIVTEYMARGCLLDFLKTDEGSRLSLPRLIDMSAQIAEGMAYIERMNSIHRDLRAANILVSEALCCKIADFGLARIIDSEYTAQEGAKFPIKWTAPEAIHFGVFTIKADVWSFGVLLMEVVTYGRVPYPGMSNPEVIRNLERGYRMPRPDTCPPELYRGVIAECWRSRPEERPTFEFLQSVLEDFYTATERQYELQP

[7] = target: Bone morphogenetic protein receptor type-1A (Homo sapiens) (UniProt P36894); experiment: BMPR1A (ALK3) Kinase screen; details: Compound concentration 1.0 uM
[8] = target: Cyclin-dependent kinase 1/cyclin B (Homo sapiens) (UniProt P06493+P14635+Q8WWL7+O95067); experiment: CDK1/cyclin B Kinase screen; format: protein-complex assay; details: Compound concentration 1.0 uM
[9] = target: Cyclin-dependent kinase 2/cyclin A (Homo sapiens) (UniProt P24941+P20248+P78396); experiment: CDK2/cyclin A Kinase screen; format: protein-complex assay; details: Compound concentration 1.0 uM
[10] = test system: Epidermal growth factor receptor (Homo sapiens), P00533 [L858R]; experiment: EGFR (ErbB1) L858R Kinase screen; details: Compound concentration 1.0 uM
[11] = target: Insulin receptor (Homo sapiens) (UniProt P06213); experiment: INSR Kinase screen; details: Compound concentration 1.0 uM
Chain of Insulin receptor (Homo sapiens) (P06213 28-758 limits assumed): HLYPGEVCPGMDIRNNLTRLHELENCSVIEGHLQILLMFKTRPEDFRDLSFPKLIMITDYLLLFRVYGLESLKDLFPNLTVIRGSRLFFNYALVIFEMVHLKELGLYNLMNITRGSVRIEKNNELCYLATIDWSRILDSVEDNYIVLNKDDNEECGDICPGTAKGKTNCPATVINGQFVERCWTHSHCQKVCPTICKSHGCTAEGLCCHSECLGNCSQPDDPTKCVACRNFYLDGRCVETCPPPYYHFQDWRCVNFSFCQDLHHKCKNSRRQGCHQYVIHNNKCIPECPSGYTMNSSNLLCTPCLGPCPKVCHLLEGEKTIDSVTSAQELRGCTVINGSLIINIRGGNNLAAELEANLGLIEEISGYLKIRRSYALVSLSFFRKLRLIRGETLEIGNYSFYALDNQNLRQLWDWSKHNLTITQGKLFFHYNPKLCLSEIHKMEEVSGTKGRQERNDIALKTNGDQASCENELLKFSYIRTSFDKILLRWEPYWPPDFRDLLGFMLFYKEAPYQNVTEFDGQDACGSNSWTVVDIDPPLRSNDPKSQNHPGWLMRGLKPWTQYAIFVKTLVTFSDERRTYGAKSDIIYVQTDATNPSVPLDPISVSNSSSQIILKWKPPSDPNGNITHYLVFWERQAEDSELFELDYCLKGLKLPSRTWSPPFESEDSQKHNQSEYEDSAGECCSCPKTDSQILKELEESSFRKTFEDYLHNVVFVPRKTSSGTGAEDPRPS
Chain of Insulin receptor (Homo sapiens) (P06213 763-1382 limits assumed): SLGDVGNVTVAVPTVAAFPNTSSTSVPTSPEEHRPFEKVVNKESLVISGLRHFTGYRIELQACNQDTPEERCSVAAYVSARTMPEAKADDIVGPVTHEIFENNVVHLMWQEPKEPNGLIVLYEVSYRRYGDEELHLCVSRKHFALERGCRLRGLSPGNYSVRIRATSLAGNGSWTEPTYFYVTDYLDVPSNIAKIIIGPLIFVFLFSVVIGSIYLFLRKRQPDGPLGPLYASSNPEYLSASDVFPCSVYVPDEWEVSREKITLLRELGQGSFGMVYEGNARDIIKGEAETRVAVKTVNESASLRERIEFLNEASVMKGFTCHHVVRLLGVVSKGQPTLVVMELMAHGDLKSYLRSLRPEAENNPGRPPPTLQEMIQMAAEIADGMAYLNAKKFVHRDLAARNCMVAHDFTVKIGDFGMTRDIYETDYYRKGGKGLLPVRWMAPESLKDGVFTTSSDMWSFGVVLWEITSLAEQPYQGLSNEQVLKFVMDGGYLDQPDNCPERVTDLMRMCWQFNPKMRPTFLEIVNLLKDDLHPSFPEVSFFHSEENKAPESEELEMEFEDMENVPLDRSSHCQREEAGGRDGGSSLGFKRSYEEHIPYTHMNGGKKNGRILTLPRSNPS

[12] = target: Mitogen-activated protein kinase kinase kinase 11 (Homo sapiens) (UniProt Q16584); experiment: MAP3K11 (MLK3) Kinase screen; details: Compound concentration 1.0 uM
[13] = target: Mitogen-activated protein kinase kinase kinase 14 (Homo sapiens) (UniProt Q99558); experiment: MAP3K14 (NIK) Kinase screen; details: Compound concentration 1.0 uM
[14] = target: Mitogen-activated protein kinase 10 (Homo sapiens) (UniProt P53779); experiment: MAPK10 (JNK3) Kinase screen; details: Compound concentration 1.0 uM
[15] = target: MAP kinase-activated protein kinase 3 (Homo sapiens) (UniProt Q16644); experiment: MAPKAPK3 Kinase screen; details: Compound concentration 1.0 uM
[16] = target: Myosin light chain kinase 2, skeletal/cardiac muscle (Homo sapiens) (UniProt Q9H1R3); experiment: MLCK (MLCK2) Kinase screen; details: Compound concentration 1.0 uM
[17] = target: PI3-kinase p110-delta/p85-alpha (Homo sapiens) (UniProt P27986+O00329); experiment: PIK3CD/PIK3R1 (p110 delta/p85 alpha) Kinase screen; format: protein-complex assay; details: Compound concentration 1.0 uM
[18] = target: cAMP-dependent protein kinase catalytic subunit alpha (Homo sapiens) (UniProt P17612); experiment: PRKACA (PKA) Kinase screen; details: Compound concentration 1.0 uM
[19] = target: Ribosomal protein S6 kinase alpha-2 (Homo sapiens) (UniProt Q15349); experiment: RPS6KA2 (RSK3) Kinase screen; details: Compound concentration 1.0 uM
Chain of Ribosomal protein S6 kinase alpha-2 (Homo sapiens) (Q15349 whole entry): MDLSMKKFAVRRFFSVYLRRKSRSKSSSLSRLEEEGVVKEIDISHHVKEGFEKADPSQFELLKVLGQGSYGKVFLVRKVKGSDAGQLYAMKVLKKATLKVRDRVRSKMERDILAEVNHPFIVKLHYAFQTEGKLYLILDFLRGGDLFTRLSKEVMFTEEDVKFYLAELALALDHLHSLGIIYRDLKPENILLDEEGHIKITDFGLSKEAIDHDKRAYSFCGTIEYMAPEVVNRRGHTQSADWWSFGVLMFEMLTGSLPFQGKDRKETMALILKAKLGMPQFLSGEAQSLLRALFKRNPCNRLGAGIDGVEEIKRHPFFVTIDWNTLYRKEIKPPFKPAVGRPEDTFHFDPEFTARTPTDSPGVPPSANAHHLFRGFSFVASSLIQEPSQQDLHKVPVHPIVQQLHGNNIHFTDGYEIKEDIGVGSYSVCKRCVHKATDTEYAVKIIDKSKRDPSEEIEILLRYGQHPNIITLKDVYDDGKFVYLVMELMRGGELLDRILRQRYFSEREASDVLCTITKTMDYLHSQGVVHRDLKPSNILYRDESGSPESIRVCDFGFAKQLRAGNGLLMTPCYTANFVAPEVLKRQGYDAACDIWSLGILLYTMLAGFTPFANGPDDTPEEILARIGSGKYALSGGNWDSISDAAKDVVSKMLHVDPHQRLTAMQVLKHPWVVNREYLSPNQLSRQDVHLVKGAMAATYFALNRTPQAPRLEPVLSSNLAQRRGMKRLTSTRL

[20] = target: STE20-like serine/threonine-protein kinase (Homo sapiens) (UniProt Q9H2G2); experiment: SLK Kinase screen; details: Compound concentration 1.0 uM
Chain of STE20-like serine/threonine-protein kinase (Homo sapiens) (Q9H2G2 whole entry, looked up): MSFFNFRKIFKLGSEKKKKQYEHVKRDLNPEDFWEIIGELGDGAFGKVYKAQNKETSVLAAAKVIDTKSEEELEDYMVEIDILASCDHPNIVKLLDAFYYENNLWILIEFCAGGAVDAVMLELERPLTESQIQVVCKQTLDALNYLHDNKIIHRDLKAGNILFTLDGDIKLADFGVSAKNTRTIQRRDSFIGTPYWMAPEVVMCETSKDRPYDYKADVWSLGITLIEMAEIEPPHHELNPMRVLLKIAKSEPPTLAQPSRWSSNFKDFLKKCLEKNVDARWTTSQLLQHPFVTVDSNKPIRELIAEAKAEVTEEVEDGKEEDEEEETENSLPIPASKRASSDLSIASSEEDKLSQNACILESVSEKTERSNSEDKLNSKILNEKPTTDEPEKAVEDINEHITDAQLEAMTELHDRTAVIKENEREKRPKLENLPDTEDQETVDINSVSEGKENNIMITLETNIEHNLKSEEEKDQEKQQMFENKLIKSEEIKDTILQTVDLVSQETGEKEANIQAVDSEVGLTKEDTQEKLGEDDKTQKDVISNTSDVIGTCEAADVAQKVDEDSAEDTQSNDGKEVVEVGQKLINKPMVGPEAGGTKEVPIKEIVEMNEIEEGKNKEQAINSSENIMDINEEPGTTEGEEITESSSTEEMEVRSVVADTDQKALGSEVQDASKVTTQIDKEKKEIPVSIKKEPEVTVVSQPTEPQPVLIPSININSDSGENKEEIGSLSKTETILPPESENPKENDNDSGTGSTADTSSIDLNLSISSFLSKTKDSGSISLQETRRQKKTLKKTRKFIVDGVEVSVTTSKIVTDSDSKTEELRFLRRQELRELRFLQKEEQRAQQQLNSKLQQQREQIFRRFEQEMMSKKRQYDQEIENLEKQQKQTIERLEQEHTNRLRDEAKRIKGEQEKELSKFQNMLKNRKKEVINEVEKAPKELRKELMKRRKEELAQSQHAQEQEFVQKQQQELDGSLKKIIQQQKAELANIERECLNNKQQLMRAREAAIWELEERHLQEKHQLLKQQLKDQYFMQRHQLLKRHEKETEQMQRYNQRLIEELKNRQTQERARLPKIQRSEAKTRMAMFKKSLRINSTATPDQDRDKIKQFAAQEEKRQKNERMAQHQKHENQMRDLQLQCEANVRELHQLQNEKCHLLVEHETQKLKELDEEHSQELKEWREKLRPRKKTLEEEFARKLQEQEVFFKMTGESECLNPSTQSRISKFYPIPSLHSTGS

[21] = target: Estrogen receptor (Homo sapiens) (UniProt P03372); details: Compound concentration 10.0 uM
[22] = target: T2, Muscarinic acetylcholine receptor M1 (Homo sapiens) (UniProt P11229); details: Compound concentration 10.0 uM
T2 sequence (whole entry): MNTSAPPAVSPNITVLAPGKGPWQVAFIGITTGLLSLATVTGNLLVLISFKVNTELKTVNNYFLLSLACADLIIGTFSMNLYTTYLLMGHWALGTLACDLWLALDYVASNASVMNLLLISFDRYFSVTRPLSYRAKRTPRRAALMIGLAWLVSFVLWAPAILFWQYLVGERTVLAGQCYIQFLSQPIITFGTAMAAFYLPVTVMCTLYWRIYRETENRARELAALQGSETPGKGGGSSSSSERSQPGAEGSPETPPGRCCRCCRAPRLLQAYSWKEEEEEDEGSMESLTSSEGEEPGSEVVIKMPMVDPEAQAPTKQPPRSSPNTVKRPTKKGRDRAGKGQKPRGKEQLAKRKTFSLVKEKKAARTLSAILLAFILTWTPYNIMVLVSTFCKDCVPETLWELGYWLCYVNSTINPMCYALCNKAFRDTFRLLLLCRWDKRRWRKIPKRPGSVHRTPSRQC

[23] = target: Sodium-dependent serotonin transporter (Homo sapiens) (UniProt P31645); details: Compound concentration 10.0 uM
[24] = target: T3, Muscarinic acetylcholine receptor M4 (Homo sapiens) (UniProt P08173); details: Compound concentration 10.0 uM
T3 sequence (whole entry): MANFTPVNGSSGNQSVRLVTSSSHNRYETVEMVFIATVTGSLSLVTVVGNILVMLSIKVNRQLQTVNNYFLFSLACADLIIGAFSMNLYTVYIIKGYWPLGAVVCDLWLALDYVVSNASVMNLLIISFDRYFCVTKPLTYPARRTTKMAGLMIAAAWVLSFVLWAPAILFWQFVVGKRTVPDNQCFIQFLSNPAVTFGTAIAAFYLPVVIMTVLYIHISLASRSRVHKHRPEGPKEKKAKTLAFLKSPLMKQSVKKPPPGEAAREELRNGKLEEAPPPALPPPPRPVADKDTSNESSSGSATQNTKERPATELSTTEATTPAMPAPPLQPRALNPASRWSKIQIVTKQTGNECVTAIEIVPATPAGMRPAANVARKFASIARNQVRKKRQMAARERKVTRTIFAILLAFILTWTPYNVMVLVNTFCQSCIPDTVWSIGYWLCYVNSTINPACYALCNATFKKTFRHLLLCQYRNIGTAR

Measured: inhibition

C[C@@H]1CN(c2cc(-c3n[nH]c4ccc(OC5(C)CC5)cc34)ncn2)C[C@H](C)O1 [MLi-2]
inactive: [1] 22% | [2] 9% | [3] 19% | [4] -8% | [5] 0.91% | [6] 8.15% | [7] 0.759% | [8] 1.29% | [9] 1.13% | [10] -0.455% | [11] -0.884% | [12] -3.69% | [13] 78.8% | [14] 13.6% | [15] 3.73% | [16] 1.73% | [17] 2.08% | [18] -2.26% | [19] 7.53% | [20] 1.5% | [21] 8% | [22] 12% | [23] 2% | [24] 26%
